Measurements from patent US20080153872A1, “Bis-(Coumarin) Compounds With Anti-Inflammatory Activity” (priority 2005, published 2008).

What was measured:
[1] = test system: IFNγ; assay: Inhibition of IFNγ production by ConA stimulated mouse splenocytes; format: cell-based; conditions: 25 μM
Description: (§1) Spleen cell suspension was obtained from BALB/c mice and lymphocytes separated by gradient density centrifugation on Histopaque 1.083 on 400 g for 30 minutes. They were washed once in medium, counted and their number adjusted as 3×10^5/200 μL/well in 96 flat bottomed culture plate in RPMI supplemented with 10% fetal bovine serum. Cells were stimulated on cytokine production by adding concanavalinA (ConA) at 5 μg/mL final concentration. Unstimulated cells were cultured in medium alone. Stock solution was prepared out of testing compounds as 10 mM in DMSO. Final concentrations made in cell culture medium were tested when they had been added together with ConA. After 72 hours incubation period cell culture supernatants were collected. In each sample IL-4, IL-5, IL-10 and IFNγ were detected and quantified using enzyme linked immunosorbent assay (ELISA) specific for pointed cytokines (R&D Systems).
(§2) To calculate results, standard curve was made out of measured OD values for recombinant protein in known concentrations. Cytokine content in unknown samples was calculated out of OD values extrapolated from the standard curve.
(§3) Percentage of inhibition is calculated using formula:
(§4) % Inhibition=(1−cytokine concentration of sample/cytokine concentration of positive control)×100.

[2] = test system: IL-10; assay: Inhibition of IL-10 production by ConA stimulated mouse splenocytes; format: cell-based; conditions: 25 μM
Description: as §1, §2, §3, §4

[3] = test system: CD1 mice; assay: PMA induced ear oedema in CD1 mice; format: in vivo, mouse; conditions: topical, single dose of 250 or 100 μg/15 μL/ear; statistically significant vs positive control
Description: Male CD1 mice (Iffa Credo, France) weighing ˜35-40 g were randomly grouped (n=8 in vehicle treated test group, dexamethasone treated control group as well as in groups treated with compounds to be assayed). Test compounds, dexamethasone as well as vehicle (Trans-phase Delivery System, containing benzyl alcohol 10%, acetone 40% and isopropanol 50%) (all from Kemika, Croatia), were administered topically to the internal surface of the left ear thirty minutes prior to administration of phorbol 12-myristate 13-acetate (PMA) (Alexis biochemicals, USA). Test compounds were administered at a single dose of 250 or 100 μg/15 μL/ear and dexamethasone at a single dose of 50 μg/15 μL/ear. Thirty minutes later, 0.01% PMA solution in acetone was applied topically to the same area of each animal in a volume of 12 μL/ear. During the treatment and challenge, animals were anaesthetized by using inhalation anaesthesia. Six hours after the challenge, animals were euthanized by asphyxiation in 100% CO2 atmosphere. For assessing the auricular oedema, 8 mm discs were cut out of left and right auricular pinna and weighed. The degree of oedema was calculated by subtracting the weight of 8 mm disc of the untreated ear from that of the treated contralateral ear.

[4] = test system: IL-4; assay: Inhibition of IL-4 production by ConA stimulated mouse splenocytes; format: cell-based; conditions: 25 μM
Description: as §1, §2, §3, §4

[5] = test system: IL-1β; assay: Inhibition of IL-1β production by LPS stimulated human peripheral blood mononuclear cells (hPBMCs); format: cell-based; conditions: 25 μM
Description: Blood was taken from healthy volunteer donor, diluted with the same volume of saline and was separated by gradient density centrifugation on FicollPaque™ Plus on 400 g for 30 minutes. PBMCs were collected, washed in RPMI, counted and number per mL was adjusted.
Collected PBMCs were cultured into 96 well tissue culture plate, flat bottom as 35.000 cells/well/200 uL in RPMI supplemented with 10% fetal bovine serum, prior inactivated on 56° C. for 30 minutes. Cells were stimulated on IL-1 production by adding LPS (serotype 0111:B4, Sigma, cat# L-2630), at final concentration 1 ng/mL. Unstimulated cells were cultured in medium alone. Stock solution was prepared out of testing compounds as 10 mM in DMSO. Final concentrations made in cell culture medium were tested when they had been added together with LPS. […] Negative and positive control samples were prepared in sextaplicates and samples with tested compound concentrations in triplicates. After overnight incubation in humidified atmosphere containing 5% CO2, supernatants were collected.
Harvested cell culture supernatants were quantified for IL-1β content by enzyme linked immunosorbent assay (ELISA).
as §3, §4

[6] = test system: IL-5; assay: Inhibition of IL-5 production by ConA stimulated mouse splenocytes; format: cell-based; conditions: 25 μM
Description: as §1, §2, §3, §4

[7] = test system: Balb/C mice; assay: Ovalbumin induced pulmonary eosinophilia in mice; format: in vivo, mouse; conditions: OVA sensitized and challenged mice; i.n., i.p. or per os
Description: Male Balb/C mice with a body weight of 20-25 g are randomly divided into groups, and sensitized by an i.p. injection of ovalbumin (OVA, Sigma) on day zero and day fourteen. On the twentieth day, the mice are subjected to a challenge test by i.n. (intranasal) application of OVA (positive control or test groups) or PBS (negative control). The compounds are administered daily i.n., i.p. or per os in different doses starting 2 days before the challenge and up to the completion of the test. Compounds are administered as suspension either in PBS, methyl cellulose or carboxymethyl cellulose with addition od DMSO (up to 5% of the total volume). 48 hours after i.n. application of OVA, the animals are then anaesthetized to obtain bronchoalveolar lavage fluid (BALF), which is used to determine total protein concentration as well as concentrations of cytokines such as IL-1β and TNF-α, absolute number of cells, and percentage of eosinophils in BALF. Bronchoalveolar lavage (BAL) is performed by infusing 1 mL of PBS divided into 3 separate volumes (0.4, 0.3 and 0.3 ml) through trachea into the lungs. The fluid is immediately withdrawn and the cell suspension stored into previously prepared 1.5 mL Eppendorf tube. Bronchoalveolar lavage fluid (BALF) is then centrifuged at […] for 5 min (4° C.). Cells are resuspended in 700 μL of PBS. To prepare cytospins, 320 μL of suspension is centrifuged at 250 rpm for 10 min (Cytospin-3, Shandon Instruments). Cells are stained with Dif-Quik (Dade Behring) to determine percentage of eosinophils by counting of at least 100 cells. The remaining resuspended cells are used for total cell count in BALF analysis (Sysmex SF 3000). Finally, lungs are sampled and stored into 10% formalin for pathohistological evaluation of eosinophil and mononuclear infiltrate. Accumulation of eosinophils and mononuclear cells in peribronchial (PB) and perivascular (PV) lung tissue areas and in alveolar spaces is monitored.
Results can be expressed as (I) decrease of absolute cell number per mL in BALF, (II) decrease of number of eosinophils per mL in BALF, (III) reduction of relative number (percentage) of eosinophils in BALF, (IV) reduction of cytokine concentrations in BALF, as well as (V) suppression of accumulation of eosinophils and mononuclear cells in peribronchial (PB) and perivascular (PV) lung tissue areas and in alveolar spaces by pathohistological scoring of treated animals compared to positive control (OVA stimulated, but untreated animals).
Fluticasone and beclomethasone are used as standard anti-inflammatory substances, and compared for ability to inhibit eosinophilia to the negative and positive controls.

[8] = test system: Balb/cJ mice; assay: LPS induced pulmonary neutrophilia in mice; format: in vivo, mouse; conditions: LPS challenged mice; i.n., i.p. or per os
Description: Male Balb/cJ mice (Iffa Credo, France) weighing ˜25 g are randomly grouped into a negative control group, positive control group and groups treated with compounds to be assayed). Test compounds, as well as vehicle (DMSO+0.5% methyl-cellulose) (all from Sigma), are administered i.n., ip. or per os two hours prior to administration of lipopolysaccharide (LPS) (E. coli, serotype 0111:B4, Sigma) or two hours prior and two hours after administration of LPS. Test compounds are administered at a single dose (two hours prior the challenge) or divided into two doses (two hours prior and two hours after the challenge). LPS solution in phosphate buffered saline (PBS) (Sigma) is administered intranasally in volume of 60 μL at concentration of 33,33 μg/mL, to all experimental groups except the negative control group, which received the same volume (60 μL) of vehicle PBS. During the challenge, animals were anaesthetized by using intraperitoneal anaesthesia. Animals are euthanized by i.p. anesthesia overdose approximately 24 hours after application of LPS to obtain bronchoalveolar lavage fluid (BALF), which is used to determine total protein concentration as well as concentrations of cytokines, such as IL-1β and TNF-α, absolute number of cells, and percentage of neutrophils in BALF. Bronchoalveolar lavage (BAL) is performed by infusing 1 mL of PBS divided into 3 separate volumes (0.4, 0.3 and 0.3 ml) through trachea into the lungs. The fluid is immediately withdrawn and the cell suspension stored into previously prepared 1.5 mL Eppendorf tube. Bronchoalveolar lavage fluid (BALF) is then centrifuged at […] for 5 min (4° C.). Cells are resuspended in 700 μL of PBS. To prepare cytospins, 320 μL of suspension is centrifuged at 250 rpm for 10 min (Cytospin-3, Shandon Instruments). Cells are stained with Dif-Quik (Dade Behring) to determine percentage of neutrophils by counting of at least 200 cells. The remaining resuspended cells are used for total cell count in BALF analysis (Sysmex SF 3000). […] Accumulation of granulocytes and mononuclear cells in peribronclhial (PB) and perivascular (PV) lung tissue areas and alveolar spaces is monitored.
Results can be expressed as (I) decrease of absolute cell number per mL in BALF, (II) decrease of number of neutrophils per mL in BALF, (III) reduction of relative number (percentage) of neutrophils in BALF, (IV) reduction of cytokine concentrations in BALF, as well as (V) suppression of accumulation of granulocytes and mononuclear cells in peribronchial (PB) and perivascular (PV) lung tissue areas and in alveolar spaces by pathohistological scoring of treated animals compared to positive control (LPS stimulated, but untreated animals).

[9] = test system: RBL-2H3 cell line; assay: IgE-induced RBL-2H3 mast cell degranulation (Fcε receptor type I); format: cell-based, rat; conditions: concentrations from 200-50 μM; RBL-2H3 cells; stimulus not specified
Description: RBL-2H3 cell line of rat basophilic leukaemia (ATCC) was used for the investigation of inhibition of degranulation induced by the activation of Fcε receptor type I or calcium ionophors. RBL-2H3 cell line was cultivated in DMEM medium (Invitrogen Cat. No. 31966-021) with 10% of phoetal calf serum (Invitrogen Corporation) at 37° C., 5% CO2, 90% relative humidity. Cells were seeded in the same medium into 24-well plates, 50000 per well, and left to reach 80-90% of confluence.
Dilutions of compounds were prepared in DMEM medium without phenol red (Invitrogen Corporation) in concentrations from 200 μM to 1 μM. The medium was removed from the cells and the diluted of compounds were added to the wells with the exception of the positive and the negative control where pure DMEM medium was added. Subsequently,
1. for the IgE-induced degranulation by Fcs receptor type I, a solution of SPE-1 (dinitrophenyl specific IgE) antibodies (Sigma) and dinitrophenylalbumin (Sigma), both in a final concentration of 0.5 μg/mL,
In the case of the negative control wells, pure DMEM medium was added. The cells were incubated for one hour at 37° C., 5% CO2, and 90% relative humidity. Each dilution as well as the positive and the negative controls were performed in triplicate. The supernatant (50 μL) was transferred in duplicate to a 96-well plate. […] The absorbance was measured at […]. […]

SMILES | inhibition of IFNγ production [1] | inhibition of IL-10 production [2] | suppression of ear oedema [3] | inhibition of IL-4 production [4] | inhibition of IL-1β production [5] | inhibition of IL-5 production [6] | reduction of percentage of eosinophils and/or their total number in BALF and/or by histological scoring [7] | reduction of percentage of neutrophils and/or their total number in BALF and/or by histological scoring [8] | inhibition of degranulation (standard) [9]
CCc1ccc2oc(=O)c(C(c3ccc(O)cc3)c3c(O)c4cc(CC)ccc4oc3=O)c(O)c2c1 [Example 244] | significantly inhibited | significantly inhibited | considered active | significantly inhibited | significantly inhibited | significantly inhibited |  |  | 
Cc1cc2oc(=O)c(C(c3c(O)c4cc(C)c(C)cc4oc3=O)C(C)O)c(O)c2cc1C (stereo not shown) [Example 363] |  |  | considered active |  |  |  | statistically significant reduction | statistically significant reduction | 
CN1CCC(=C2c3ccccc3CC(=O)c3sccc32)CC1 [Ketotifen, ketotifen] |  |  |  |  |  |  |  |  | significantly inhibits degranulation
